The source of these data is patent US10294230B2, “3,3-difluoropiperidine carbamate heterocyclic compounds as NR2B NMDA receptor antagonists” (Rugen Holdings (Cayman) Limited, priority 2015, dated 2019).

SMILES strings stand for the structures. Bounds are passed on as bounds.

For data set [1], the target named is human NR1/NR2A (Homo sapiens (Human), UniProt Q05586+Q12879). Put plainly: NR2A antagonist activity, Fluo-4 calcium influx in HEK293 cells. The format is cell-based. The conditions noted are these: Table 2.1, glutamate 100 μM, glycine 50 μM. Here is the method: (§1) HEK293 cell lines stably expressing cloned human NR1/NR2B and NR1/NR2A, respectively, were established according to standard previously described methods (Hansen et al., Comb. Chem High Throughput Screen. 11:304, 2008). Activation of the NR2A or NR2B subtype of NMDA receptor with glutamate as an agonist and glycine co-agonist on these cells results in calcium influx, which can be monitored with fluorescent indicator Fluo-4.
(§2) For experiments, the cells were seeded onto poly-D-lysine-coated 96-well black plates with clear bottom (Corning) at a density of ˜50,000 cells/well. After overnight culture, the growth medium was removed from the wells and the cells were incubated at 37° C. for 60 min in Hanks buffer containing 4 μM fluo-4-AM (Invitrogen) and 0.1% bovine serum albumin (BSA). After dye-loading, the cells were washed three times with Hanks buffer and incubated for 10 min at room temperature with various concentrations of test compounds prepared in Hanks buffer with 0.1% BSA. The cell plates were placed onto FDSS pCell fluorescence reader (Hamamatsu). After 20 sec reading of background fluorescence, agonist glutamate at final 100 μM and co-agonist glycine at final 50 μM were added to the cells to activate the receptor, and the resulting fluorescence changes were recorded and quantified. Based on the changes in fluorescence intensity, the pharmacological effect of test compounds were analyzed and the IC50 values derived from a non-linear least squares fitting of the concentration-dependent response to a standard logistic equation using Prism (Graphpad, Inc): Amplitude=Max Amplitude/(1+(IC50/[antagonist])^n).

The target in data set [2] is human NR1/NR2B (Homo sapiens (Human), UniProt Q05586+Q13224). Nature of the data set: NR2B antagonist activity, Fluo-4 calcium influx in HEK293 cells. It counts as cell-based. The protocol: as §1, §2
The target in data set [3] is hERG channel (Homo sapiens (Human), UniProt Q12809). Put plainly: hERG channel inhibition, whole cell patch clamp in HEK293 cells. The settings on record: 10 μM. It counts as cell-based.
Protocol: The assay was performed on hERG channel stably expressed in HEK293 cells. The cells were cultured at 37° C. in a humidified CO2 incubator in the growth medium consisting of DMEM, 10% fetal bovine serum and antibiotics. Prior to the assay, the cells were seeded onto a 12 mm PDL-coated glass coverslip and cultured in a 35 mm Petri dish. After 16 to 40 hr culture, the cover slip was transferred into the chamber of OctaFlow perfusion system (ALA Instrument) and under a constant flow of extracellular solution (140 mM NaCl, 4 mM KCl, 1 mM MgCl2, 2 mM CaCl2, 10 mM HEPES, 10 mM D-glucose, pH 7.35, osmolarity 290). Whole cell patch clamping was performed with a glass micropipette filled with intracellular solution (120 mM KCl, 1.75 mM MgCl2, 5.4 mM CaCl2, 10 mM HEPES, 10 mM EGTA, and 4 mM ATP-K2, PH 7.2, osmolarity 310). Giga-seal was maintained during the test. The voltage control and current measurement were carried out using Axon amplifier 700B, Digidata 1440A and CLAMPEX10 software (Molecular Devices). Whole-cell hERG currents were recorded following the Petroski protocol: the cell was held at −80 mV, and the voltage step jumped from −80 to 30 mV and stay for 2 sec with a 20 ms prepulse at −40 mV. After depolarization, the voltage was decreased to −40 mV and stay for 2 sec, and returned back to −80 mV. Test compound was applied by quartz capillary tubes tip (200 μm inner diameter), and the flow rate was controlled at 2-3 ml/min with OctaFlow perfusion system. Different concentrations of the compound were applied to the cells for 5 min and the hERG current was measured three times before, during and after compound treatment. The data were analyzed using Clampfit 10 software (Molecular Devices) to generate IC50 values.
Data set [4] relates to haloperidol-induced catalepsy. Put plainly: Haloperidol-Induced Catalepsy (HIC) Model. It counts as in vivo. The conditions noted are these: rats. An excerpt: The Haloperidol-induced Catalepsy (HIC) model detects antipsychotic activity and the action of NR2B selective antagonists (Steece-Collier et al. Exp. Neurol. 163: 239, 2000) and was based on methods described by Chermat and Simon (J. Pharmacol., 6, 493-496, 1975). The capacity to induce catalepsy serves as an index of the liability of a test substance to induce extrapyramidal side-effects, in particular Parkinsonism. Antagonism of antipsychotic-induced catalepsy can thus serve to detect anti-Parkinson potential.
Rats were injected with haloperidol (1 mg/kg i.p.) and were examined for catalepsy at 30 minute intervals up to 360 minutes. Presence (+) or absence (−) of catalepsy was assessed by three procedures: 1) imposed crossing of the ipsilateral fore- and hind-limbs; 2) placing the animal in the Buddha position; 3) the tilting board, an automatic device that, 5 seconds after positioning the rat, displaces the rat from a horizontal to vertical position and back while it clings to a wire grid with its front paws. Akinesia and catalepsy were assessed depending on whether or not the animal moves before (akinesia) or during operation of the board (catalepsy).
The 4 scores were cumulated over time to give a global catalepsy score per animal. Six rats were studied per group. The test was performed blind (test substances versus vehicle). Test substances were evaluated at 1 or more doses, administered typically using 0.5% dimethylsulfoxide, 4% hydroxypropyl-b-cyclodextrin water as a vehicle p.o. 15 minutes before haloperidol (i.e. 45 minutes before the first measurement), and compared with a vehicle control group.
Amphetamine (8 mg/kg p.o.), administered 60 minutes before the test (i.e. 90 minutes before the first measurement), was used as reference substance. Data with the test substances were analyzed by comparing treated groups with vehicle control using Kruskal-Wallis Test followed by Mann-Whitney U tests at each time and for cumulated score. Data with the reference substance were analyzed using Mann-Whitney U tests.

The test system of data set [5] is NMDA receptor. Nature of the data set: [3H] MK-801 radioligand binding, rat brain membranes. The settings on record: 2 nM [3H] MK-801. Here is the method: (§3) This example describes NMDA receptor binding assays using two different radioligands, [^3H] […] An established binding assay using the non-selective NMDA receptor ligand [^3H] […] The binding assay method using the NR2B selective receptor ligand [^3H] […] This assay serves as a selective measure of NR2B receptor binding activity in native rat brain receptors. Briefly, the brains of Male Wistar rats were homogenized (Polytron) before centrifugation at 40,000×g for 15 minutes at 4° C. After 2 washes, the final pellet was homogenized and stored at −80° C. The protein concentration was determined by Bradford assay.
(§4) Test compounds were solubilized at 10 mM in DMSO. Then the dilutions were performed with a constant solvent concentration (1% DMSO) in the assay.
(§5) After incubation for 4.5 h at room temperature, the assays were filtered on GF/B filters pretreated with 0.3% (v/v) PEI with a Brandel system for [^3H] […] The experiment was performed in duplicate (n=2).

For data set [6], the target named is CYP2D6 (Homo sapiens (Human), UniProt P10635). Nature of the data set: CYP P450 enzyme inhibition, pooled human liver microsome. It counts as in vitro ADME. The settings on record: 10 μM, pooled HLM, dextromethorphan 5 μM. In general terms: Liver microsomes are a subcellular fraction often used to study metabolism.
Protocol: Those CYP isoforms and their corresponding probe substrates are as follows: CYP1A2 (phenacetin, 30 μM), CYP2C9 (tolutamide, 100 μM), CYP2C19 (S-mephenytoin, 40 μM), CYP2D6 (dextromethorphan, 5 μM) and CYP3A4 (midazolam, 1 μM). All probe substrates were used at concentrations near or below their Kms. For experiment, a reaction mixture of test compound at 10 μM or in serial dilution, CYP probe substrate described above and 0.2 mg/mL pooled HLM in phosphate buffer, pH 7.4 in a final volume of 200 μL was pre-incubated at 37° C. for 10 minutes in triplicate. The reaction was initiated by addition of NADPH at final concentration of 1 mM. The reaction was terminated after 10 minutes (CYP1A2, CYP2D6 and CYP3A4) or 30 minutes (CYP2C9 and CYP2C19) by addition of 100 μL ice-cold acetonitrile with internal standard (IS). The samples were then centrifuged at 13,000 rpm and the supernatants were injected to LC-MS/MS (Agilent Technologies) to quantify the concentration of the specific metabolites of the probe substrates formed by individual CYP450 isoforms. The inhibition ratio is calculated as: (Mt−M0)/Mwater×100% in which Mt and M0 represent the concentrations of the specific probe substrate metabolite, which was formed by individual CYP450 isoform, at the beginning and end of the reaction in the presence of test compound; while Mwater represents the concentration of the specific metabolite at the end of the reaction in the absence of test compound. Test compound concentration-dependent response data experiments performed in triplicate.
Data set [7] relates to electroconvulsive threshold (tonic convulsions). Put plainly: Electroconvulsive Threshold Test (ECT). The settings on record: rats, 3 and 10 mpk p.o., mesylate salt. It counts as in vivo, rats. The protocol:
Test compound E1-8.2 was administered as the free base.
Rats were administered ECS (rectangular current: 0.6 ms pulse width, 1.5 s duration, 200 Hz) via earclip electrodes connected to a constant current shock generator (Ugo Basile: type 7801). Test compounds were administered by oral gavage (p.o.) 1 hour before the test at a dose volume of 5 mL/kg.
Treatment groups of 20 rats were exposed to ECS as follows: The first animal was exposed to 30 mA of ECS. […] (increases of 5 mA) until the first tonic convulsion was observed. Once the first tonic convulsion was observed, the intensity of ECS was decreased by 2 mA for the next animal and then decreased or increased by 2 mA from animal to animal depending on whether the previous animal convulsed or not. If the first animal did convulse (tonic convulsions) within 5 seconds, animal no2 is exposed to 25 mA, etc. . . . (decreases of 5 mA) until the absence of tonic convulsions was observed. At this point, the intensity of ECS was increased by 2 mA for the next animal and then decreased or increased by 2 mA from animal to animal depending on whether the previous animal convulsed or not. The minimum current intensity applied is 5 mA and the maximum 95 mA. The first 5 animals serve to approach threshold current and were not included in the analysis. The results are presented as the mean current intensity administered to the final 15 animals of a group. The test was performed blind. A positive percent change indicates an anticonvulsant effect. A negative percent change indicates a proconvulsant effect. The test substance was evaluated at 4 doses, typically using 0.5% dimethylsulfoxide, 4% hydroxypropyl-b-cyclodextrin water as a vehicle, and administered p.o. 60 minutes before ECS, and compared with a vehicle control group. Diazepam (16 mg/kg p.o.), administered under the same experimental conditions, was used as reference substance. The experiment included 6 groups. Data with the test substance was analyzed by comparing treated groups with vehicle control using one-way ANOVA followed by Dunnett's t tests.

The test system of data set [8] is pentylenetetrazole (PTZ) induced convulsions. Nature of the data set: Pentylenetetrazole (PTZ) Seizure Test. It counts as in vivo. The settings on record: 10 mg/kg p.o., mesylate salt. The protocol:
Rats, placed in individual macrolon cages (25×19×13 cm), were injected with pentylenetetrazole (PTZ) (100 mg/kg s.c.). The occurrence and latency of clonic and tonic convulsions and death were noted over a 30 minute period. 15 rats were studied per group. The test was performed blind. […]
Compounds were evaluated typically using 0.5% dimethylsulfoxide, 4% hydroxypropyl-b-cyclodextrin water as a vehicle at 1 or more doses (e.g., 1, 3 and 10 mg/kg), administered p.o. 30 minutes before PTZ, and compared with a vehicle control group. Diazepam (16 mg/kg p.o.), administered 60 minutes before PTZ, was used as reference substance. The experiment was performed over 2 separate sub-experiments with N=7 to 8 animals per group and per sub-experiment. Quantitative data (latencies) with the test substance was analyzed by comparing treated groups with vehicle control using Kruskal-Wallis test followed by Mann-Whitney U test. Quantitative data with the reference substance was analyzed using Mann-Whitney U test. Quantal data (frequencies) was analyzed by comparing treated groups with vehicle control using Fisher's Exact Probability tests (*=p<0.05; **=p<0.01; ***=p<0.001).

Data set [9] addresses NR2B receptor (Rattus norvegicus (Rat), UniProt P35439+Q00960). Nature of the data set: [3H] (E)-N1-(2-methoxybenzyl)-cinnamidine radioligand binding, rat brain membranes. The conditions noted are these: for displacement of [3H] (E)-N1-(2-methoxybenzyl)-cinnamidine at the NR2B receptor high affinity site: rat brain membranes; for Ki: read-out: Ki at the NR2B receptor high affinity site. Here is the method:
as §3
[^3H] […] Thus, using [^3H]
as §4, §5

The mark [10] stands for this setting: Table 2.1, HEK293 human NR1/NR2B, glutamate 100 μM, glycine 50 μM.

human NR1/NR2A, sequence (Q12879 23-1464, other chains not shown): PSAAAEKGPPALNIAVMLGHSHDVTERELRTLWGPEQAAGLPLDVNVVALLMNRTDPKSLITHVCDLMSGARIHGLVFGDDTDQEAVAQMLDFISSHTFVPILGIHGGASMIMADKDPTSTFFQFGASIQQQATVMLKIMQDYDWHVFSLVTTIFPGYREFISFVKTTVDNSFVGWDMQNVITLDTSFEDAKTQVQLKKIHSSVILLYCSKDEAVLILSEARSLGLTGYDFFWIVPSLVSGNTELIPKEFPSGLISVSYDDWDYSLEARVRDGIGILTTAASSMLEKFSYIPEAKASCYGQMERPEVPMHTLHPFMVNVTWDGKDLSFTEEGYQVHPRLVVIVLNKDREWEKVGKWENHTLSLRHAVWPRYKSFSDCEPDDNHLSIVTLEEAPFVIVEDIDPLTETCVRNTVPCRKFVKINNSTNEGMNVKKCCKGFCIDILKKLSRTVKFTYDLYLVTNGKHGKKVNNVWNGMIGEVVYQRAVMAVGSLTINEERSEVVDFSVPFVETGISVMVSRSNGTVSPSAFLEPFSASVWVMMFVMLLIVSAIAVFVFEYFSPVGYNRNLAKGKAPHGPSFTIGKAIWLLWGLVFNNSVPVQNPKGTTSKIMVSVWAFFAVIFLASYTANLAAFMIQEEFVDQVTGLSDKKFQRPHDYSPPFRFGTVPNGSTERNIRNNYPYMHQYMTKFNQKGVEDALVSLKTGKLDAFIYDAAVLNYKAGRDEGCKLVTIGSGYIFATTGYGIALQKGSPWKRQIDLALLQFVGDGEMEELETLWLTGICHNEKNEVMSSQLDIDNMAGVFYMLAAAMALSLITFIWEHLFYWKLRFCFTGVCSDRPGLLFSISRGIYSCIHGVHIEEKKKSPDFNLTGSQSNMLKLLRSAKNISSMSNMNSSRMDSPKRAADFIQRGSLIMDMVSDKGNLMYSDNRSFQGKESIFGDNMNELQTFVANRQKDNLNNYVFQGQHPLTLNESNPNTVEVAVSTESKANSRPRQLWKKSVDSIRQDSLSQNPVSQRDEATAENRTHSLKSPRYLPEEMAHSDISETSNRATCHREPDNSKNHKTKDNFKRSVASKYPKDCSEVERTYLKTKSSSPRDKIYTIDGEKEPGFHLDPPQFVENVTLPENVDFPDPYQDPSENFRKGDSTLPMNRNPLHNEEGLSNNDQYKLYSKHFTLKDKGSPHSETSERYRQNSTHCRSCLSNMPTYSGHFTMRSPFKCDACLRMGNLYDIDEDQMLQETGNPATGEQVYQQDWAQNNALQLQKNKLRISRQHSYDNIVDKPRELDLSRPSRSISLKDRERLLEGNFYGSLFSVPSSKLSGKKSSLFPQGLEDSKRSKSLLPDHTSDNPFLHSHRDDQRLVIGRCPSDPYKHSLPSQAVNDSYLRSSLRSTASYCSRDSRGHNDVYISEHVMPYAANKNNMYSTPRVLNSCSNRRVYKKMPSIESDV
NR2B receptor, sequence (Q00960 27-1482, other chains not shown): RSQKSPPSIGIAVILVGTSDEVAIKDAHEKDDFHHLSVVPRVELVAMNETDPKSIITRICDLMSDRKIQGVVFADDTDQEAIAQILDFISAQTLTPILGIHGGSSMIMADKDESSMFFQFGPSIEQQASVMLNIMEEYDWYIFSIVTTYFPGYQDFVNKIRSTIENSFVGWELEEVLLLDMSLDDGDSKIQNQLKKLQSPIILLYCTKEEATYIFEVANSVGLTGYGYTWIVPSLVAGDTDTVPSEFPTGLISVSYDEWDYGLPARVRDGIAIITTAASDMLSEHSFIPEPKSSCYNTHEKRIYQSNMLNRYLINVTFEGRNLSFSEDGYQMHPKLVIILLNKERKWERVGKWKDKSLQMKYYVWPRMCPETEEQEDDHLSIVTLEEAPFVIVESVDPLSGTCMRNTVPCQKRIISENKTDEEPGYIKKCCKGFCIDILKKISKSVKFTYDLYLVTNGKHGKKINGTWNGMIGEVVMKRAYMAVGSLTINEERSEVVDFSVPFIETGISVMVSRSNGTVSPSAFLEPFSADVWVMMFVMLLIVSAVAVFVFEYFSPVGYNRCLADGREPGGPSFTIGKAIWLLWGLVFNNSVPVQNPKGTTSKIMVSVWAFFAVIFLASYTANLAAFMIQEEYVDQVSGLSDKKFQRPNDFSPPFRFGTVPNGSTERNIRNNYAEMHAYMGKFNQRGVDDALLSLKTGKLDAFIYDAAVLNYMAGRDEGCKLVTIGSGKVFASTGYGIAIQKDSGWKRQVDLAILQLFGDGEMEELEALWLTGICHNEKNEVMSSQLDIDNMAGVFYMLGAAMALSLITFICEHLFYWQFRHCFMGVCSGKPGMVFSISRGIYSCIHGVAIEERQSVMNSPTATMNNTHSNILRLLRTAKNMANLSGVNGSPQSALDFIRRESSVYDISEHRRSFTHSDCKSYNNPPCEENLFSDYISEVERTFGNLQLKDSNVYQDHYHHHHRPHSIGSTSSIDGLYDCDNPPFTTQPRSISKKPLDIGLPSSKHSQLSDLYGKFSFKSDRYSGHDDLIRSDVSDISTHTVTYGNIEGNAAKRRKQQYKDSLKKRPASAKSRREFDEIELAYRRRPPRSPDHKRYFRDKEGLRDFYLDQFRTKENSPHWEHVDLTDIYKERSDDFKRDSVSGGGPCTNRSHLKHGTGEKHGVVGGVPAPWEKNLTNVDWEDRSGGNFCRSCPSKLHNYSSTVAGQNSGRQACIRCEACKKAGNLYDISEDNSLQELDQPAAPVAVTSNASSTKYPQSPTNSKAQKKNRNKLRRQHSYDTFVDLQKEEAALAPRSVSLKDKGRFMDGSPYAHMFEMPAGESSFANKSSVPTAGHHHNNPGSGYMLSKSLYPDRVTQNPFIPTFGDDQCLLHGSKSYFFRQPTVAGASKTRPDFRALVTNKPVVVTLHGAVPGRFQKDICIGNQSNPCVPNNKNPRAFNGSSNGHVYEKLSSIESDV
hERG channel, sequence (Q12809 whole entry): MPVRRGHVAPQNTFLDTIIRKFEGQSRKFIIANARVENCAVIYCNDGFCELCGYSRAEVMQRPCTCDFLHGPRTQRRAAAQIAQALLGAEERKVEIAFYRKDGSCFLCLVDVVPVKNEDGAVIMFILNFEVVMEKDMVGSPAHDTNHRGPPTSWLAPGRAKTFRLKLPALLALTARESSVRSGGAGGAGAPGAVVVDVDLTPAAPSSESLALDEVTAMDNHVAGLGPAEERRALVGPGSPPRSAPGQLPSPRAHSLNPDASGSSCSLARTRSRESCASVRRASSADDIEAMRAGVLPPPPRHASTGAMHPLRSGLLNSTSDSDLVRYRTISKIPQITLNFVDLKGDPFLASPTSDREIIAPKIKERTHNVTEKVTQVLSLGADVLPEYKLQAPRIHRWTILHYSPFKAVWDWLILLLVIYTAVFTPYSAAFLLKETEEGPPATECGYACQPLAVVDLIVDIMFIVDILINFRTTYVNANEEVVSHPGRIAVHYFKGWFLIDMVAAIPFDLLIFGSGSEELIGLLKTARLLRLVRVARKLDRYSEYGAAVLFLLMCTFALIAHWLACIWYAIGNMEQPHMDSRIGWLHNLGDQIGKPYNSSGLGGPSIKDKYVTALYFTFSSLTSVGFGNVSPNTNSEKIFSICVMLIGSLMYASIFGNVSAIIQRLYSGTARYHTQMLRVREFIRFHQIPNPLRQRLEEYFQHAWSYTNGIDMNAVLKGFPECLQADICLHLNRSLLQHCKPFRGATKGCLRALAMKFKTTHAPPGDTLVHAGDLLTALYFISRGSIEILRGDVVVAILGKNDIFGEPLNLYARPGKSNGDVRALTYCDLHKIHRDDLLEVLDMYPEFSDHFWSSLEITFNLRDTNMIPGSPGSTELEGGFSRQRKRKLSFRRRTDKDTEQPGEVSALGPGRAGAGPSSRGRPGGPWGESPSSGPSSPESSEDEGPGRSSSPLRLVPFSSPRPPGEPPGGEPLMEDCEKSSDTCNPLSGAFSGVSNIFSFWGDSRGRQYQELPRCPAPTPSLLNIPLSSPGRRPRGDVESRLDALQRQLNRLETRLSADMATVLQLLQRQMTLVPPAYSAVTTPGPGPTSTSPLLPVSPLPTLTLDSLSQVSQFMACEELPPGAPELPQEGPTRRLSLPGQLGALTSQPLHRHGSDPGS
CYP2D6, sequence (P10635 whole entry): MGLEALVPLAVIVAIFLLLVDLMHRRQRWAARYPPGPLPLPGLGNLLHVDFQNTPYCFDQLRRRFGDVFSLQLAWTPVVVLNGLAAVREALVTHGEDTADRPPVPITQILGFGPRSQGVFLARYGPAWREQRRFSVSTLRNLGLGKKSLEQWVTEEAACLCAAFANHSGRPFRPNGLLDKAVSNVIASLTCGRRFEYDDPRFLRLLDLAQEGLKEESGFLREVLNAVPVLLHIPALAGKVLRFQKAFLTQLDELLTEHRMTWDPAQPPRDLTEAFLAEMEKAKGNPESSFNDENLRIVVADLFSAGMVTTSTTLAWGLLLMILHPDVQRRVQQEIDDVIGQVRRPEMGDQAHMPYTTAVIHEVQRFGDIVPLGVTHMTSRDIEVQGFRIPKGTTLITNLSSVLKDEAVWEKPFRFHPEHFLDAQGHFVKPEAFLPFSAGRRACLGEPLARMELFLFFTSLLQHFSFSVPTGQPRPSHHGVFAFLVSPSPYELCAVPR

In the case of `Cc1ccc(COC(=O)N2CC[C@H](CNc3cnc(C)cn3)C(F)(F)C2)cc1` [Compound E1-21.26, R-4-methylbenzyl 3,3-difluoro-4-((5-methylpyrazin-2-ylamino)-methyl)piperidine-1-carboxylate], the IC50 in data set [1] was > 10000 nM; in data set [2] (setting [10]) it was 38.7 nM; in data set [2] (Table 2.2), 38.7 nM; in data set [2] (Table 2.3), 38.7 nM. Moreover, the “hERG @ 10 μM (%)” value in data set [3] is on record as 39%. The figures for the “cumulated score of catalepsy over 360 mins” value in [4] (3 mg/kg p.o.) and in [4] (10 mg/kg p.o.) were 11.7 and 1.0, respectively. The “partial effect on [3H] MK-801 binding” value in data set [5] worked out at 41%. Moreover, in data set [6], the “CYP2D6 @ 10 μM (%)” value is 32%. Besides, the “electroconvulsive threshold, pro-/anticonvulsant activity” value in [7] is listed as “anticonvulsant activity”. Moreover, the “number of rats showing tonic convulsions, change vs vehicle controls” value in data set [8] is reported as −82%. In addition, the “latency to clonic convulsions, change vs vehicle controls” value in data set [8] (rats) is listed as “+45%”. In addition, the “latency to death, change vs vehicle controls” value in data set [8] (rats) is “+31%”. The “latency to tonic convulsions, change vs vehicle controls” value in data set [8] (rats) is recorded as “+40%”. Moreover, the “number of deaths, change vs vehicle controls” value in data set [8] (rats) is given as −82%. Besides, the “displacement of [3H] (E)-N1-(2-methoxybenzyl)-cinnamidine at the NR2B receptor high affinity site” value (“displacement of [3H]” for short) in [9] worked out at 99%.

Regarding `O=C(OCc1ccc(Cl)cc1)N1CC[C@H](CNc2nccn3cnnc23)C(F)(F)C1` [Compound E1-1.3, R-4-chlorobenzyl 4-(([1,2,4]triazolo[4,3-a]pyrazin-8-ylamino)methyl)-3,3-difluoropiperidine-1-carboxylate], the IC50 in data set [1] was > 10000 nM; in data set [2] (setting [10]), 14.8 nM; in data set [2] (Table 2.2), 14.8 nM; in data set [2] (Table 2.3), 14.8 nM. In data set [3], the “hERG @ 10 μM (%)” value was 19%. In addition, in [5], the “partial effect on [3H] MK-801 binding” value was found to be 41%. For the same compound, the “CYP2D6 @ 10 μM (%)” value in data set [6] is 37%. For the same compound, the “displacement of [3H]” value in [9] is on record as 97%. Besides, in data set [9], the Ki worked out at 2.34 nM.

As to `Cc1ccc(COC(=O)N2CC[C@@H](CNc3nccn4cnnc34)C(F)(F)C2)cc1` [Compound E2-1.2, (−)-S-4-methylbenzyl 4-(([1,2,4]triazolo[4,3-a]pyrazin-8-ylamino)methyl)-3,3-difluoropiperidine-1-carboxylate], the IC50 is > 10000 nM in data set [1], 156 nM in data set [2] (setting [10]), 156 nM in [2] (Table 2.2) and 156 nM in data set [2] (Table 2.3). Besides, the “hERG @ 10 μM (%)” value in data set [3] is on record as 22%. The “partial effect on [3H] MK-801 binding” value in data set [5] was 36%. For the same compound, the “displacement of [3H]” value in data set [9] is reported as 98%. For the same compound, in data set [9], the Ki turned out to be 74.3 nM.

Turning to `Cc1ccc(COC(=O)N2CC[C@H](CNc3cnccn3)C(F)(F)C2)cc1` [Compound E1-21.2, R-4-methylbenzyl 3,3-difluoro-4-((pyrazin-2-ylamino)methyl)piperidine-1-carboxylate], the IC50 in data set [1] was > 10000 nM; in data set [2] (setting [10]), 14.4 nM; in data set [2] (Table 2.2), 14.4 nM; in data set [2] (Table 2.3) it was 14.4 nM. In addition, the “hERG @ 10 μM (%)” value in [3] is 27%. For the same compound, in data set [5], the “partial effect on [3H] MK-801 binding” value is recorded as 49%. Moreover, in data set [6], the “CYP2D6 @ 10 μM (%)” value was 97%. The “displacement of [3H]” value in data set [9] turned out to be 98%.

With `O=C(OCc1ccc(F)cc1)N1CC[C@H](CNc2nccn3cnnc23)C(F)(F)C1` [Compound E1-1.4, R-4-fluorobenzyl 4-(([1,2,4]triazolo[4,3-a]pyrazin-8-ylamino)methyl)-3,3-difluoropiperidine-1-carboxylate], the half-maximal inhibitory concentration (IC50) in data set [1] was > 10000 nM; in data set [2] (setting [10]) it was 20.5 nM; in data set [2] (Table 2.2), 20.5 nM; in data set [2] (Table 2.3), 20.5 nM. Moreover, the “hERG @ 10 μM (%)” value in data set [3] is listed as 11%. In addition, the “partial effect on [3H] MK-801 binding” value in data set [5] was 32%. In data set [6], the “CYP2D6 @ 10 μM (%)” value is given as 19%. Moreover, the “displacement of [3H]” value in data set [9] came out at 98%. Besides, in [9], the Ki stood at 18.2 nM.

A word on the IC50: it is the midpoint of a concentration-inhibition curve. For orientation: Ki means a measure of affinity in units of concentration, obtained from inhibition or displacement.
